From patent US7863289B2, “Compounds and methods for kinase modulation, and indications therefor” (Plexxikon, Inc., priority 2006, dated 2011)

Tests used:
Assay type in all cases: biochemical
[1] = target: Jnk1 (Homo sapiens, UniProt P45983); assay: Kinase activity assay, Jnk1; details: under the test conditions employed; read-out: activity toward kinase Jnk1, IC50
From the text: (§1) Assays for the activity of kinases, including, but not limited to, B-Raf, B-Raf V600E, B-Raf […] and c-Raf-1 are known in the art, for example as described in U.S. patent application Ser. No. 11/473,347 (see Iso, PCT publication WO2007002433), the disclosure of which is hereby incorporated by reference in its entirety.

[2] = target: Fms (Homo sapiens, UniProt P07333); assay: Kinase activity assay, Fms; details: under the test conditions employed; read-out: activity toward kinase Fms, IC50
From the text: as §1

[3] = target: Flt1 (Homo sapiens, UniProt P17948); assay: Kinase activity assay, Flt1; details: under the test conditions employed; read-out: activity toward kinase Flt1, IC50
From the text: as §1

[4] = target: Kdr (Homo sapiens, UniProt P35968); assay: Kinase activity assay, Kdr; details: under the test conditions employed; read-out: activity toward kinase Kdr, IC50
From the text: as §1

[5] = target: B-Raf V600E (Homo sapiens, UniProt P15056, V600E); assay: Kinase activity assay, B-Raf V600E; details: under the test conditions employed; read-out: activity toward kinase B-Raf V600E, IC50
From the text: as §1

[6] = target: HGK (Homo sapiens, UniProt O95819); assay: Kinase activity assay, HGK; details: under the test conditions employed; read-out: activity toward kinase HGK, IC50
From the text: as §1

[7] = target: B-Raf (Homo sapiens, UniProt P15056); assay: Kinase activity assay, B-Raf; details: under the test conditions employed; read-out: activity toward kinase B-Raf, IC50
From the text: as §1

[8] = target: c-Raf-1 (Homo sapiens, UniProt P04049); assay: Kinase activity assay, c-Raf-1; details: under the test conditions employed; read-out: activity toward kinase c-Raf-1, IC50
From the text: as §1

[9] = target: Src (Homo sapiens, UniProt P12931); assay: Kinase activity assay, Src; details: under the test conditions employed; read-out: activity toward kinase Src, IC50
From the text: as §1

[10] = target: Kit (Homo sapiens, UniProt P10721); assay: Kinase activity assay, Kit; details: under the test conditions employed; read-out: activity toward kinase Kit, IC50
From the text: as §1

[11] = target: Btk (Homo sapiens, UniProt Q06187); assay: Kinase activity assay, Btk; details: under the test conditions employed; read-out: activity toward kinase Btk, IC50
From the text: as §1

[12] = target: T1, TEC (Homo sapiens, UniProt P42680); assay: Kinase activity assay, TEC; details: under the test conditions employed; read-out: activity toward kinase TEC, IC50
T1 sequence (P42680 1-631): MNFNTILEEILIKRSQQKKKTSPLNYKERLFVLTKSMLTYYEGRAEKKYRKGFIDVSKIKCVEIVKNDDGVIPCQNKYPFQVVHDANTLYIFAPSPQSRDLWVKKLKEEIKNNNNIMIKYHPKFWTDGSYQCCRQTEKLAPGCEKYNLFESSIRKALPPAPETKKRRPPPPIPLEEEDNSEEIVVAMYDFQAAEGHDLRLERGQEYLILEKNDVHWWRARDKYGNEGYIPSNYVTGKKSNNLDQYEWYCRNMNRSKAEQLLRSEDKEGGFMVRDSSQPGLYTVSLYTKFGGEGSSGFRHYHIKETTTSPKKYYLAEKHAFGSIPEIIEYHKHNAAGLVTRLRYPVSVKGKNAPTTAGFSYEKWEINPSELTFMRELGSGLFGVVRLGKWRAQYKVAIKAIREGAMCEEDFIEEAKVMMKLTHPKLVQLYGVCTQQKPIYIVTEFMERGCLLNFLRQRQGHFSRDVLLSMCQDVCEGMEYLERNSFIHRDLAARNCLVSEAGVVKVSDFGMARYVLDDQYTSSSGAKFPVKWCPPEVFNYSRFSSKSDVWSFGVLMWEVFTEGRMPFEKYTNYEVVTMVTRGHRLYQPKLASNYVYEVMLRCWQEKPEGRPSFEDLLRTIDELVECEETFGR
From the text: as §1

[13] = target: B-Raf V600E/T529I (Homo sapiens, UniProt P15056, T529I/V600E); assay: Kinase activity assay, B-Raf V600E/T529I; details: under the test conditions employed; read-out: activity toward kinase B-Raf V600E/T529I, IC50
From the text: as §1

Measured: IC50

Chain of Fms (P07333 20-972): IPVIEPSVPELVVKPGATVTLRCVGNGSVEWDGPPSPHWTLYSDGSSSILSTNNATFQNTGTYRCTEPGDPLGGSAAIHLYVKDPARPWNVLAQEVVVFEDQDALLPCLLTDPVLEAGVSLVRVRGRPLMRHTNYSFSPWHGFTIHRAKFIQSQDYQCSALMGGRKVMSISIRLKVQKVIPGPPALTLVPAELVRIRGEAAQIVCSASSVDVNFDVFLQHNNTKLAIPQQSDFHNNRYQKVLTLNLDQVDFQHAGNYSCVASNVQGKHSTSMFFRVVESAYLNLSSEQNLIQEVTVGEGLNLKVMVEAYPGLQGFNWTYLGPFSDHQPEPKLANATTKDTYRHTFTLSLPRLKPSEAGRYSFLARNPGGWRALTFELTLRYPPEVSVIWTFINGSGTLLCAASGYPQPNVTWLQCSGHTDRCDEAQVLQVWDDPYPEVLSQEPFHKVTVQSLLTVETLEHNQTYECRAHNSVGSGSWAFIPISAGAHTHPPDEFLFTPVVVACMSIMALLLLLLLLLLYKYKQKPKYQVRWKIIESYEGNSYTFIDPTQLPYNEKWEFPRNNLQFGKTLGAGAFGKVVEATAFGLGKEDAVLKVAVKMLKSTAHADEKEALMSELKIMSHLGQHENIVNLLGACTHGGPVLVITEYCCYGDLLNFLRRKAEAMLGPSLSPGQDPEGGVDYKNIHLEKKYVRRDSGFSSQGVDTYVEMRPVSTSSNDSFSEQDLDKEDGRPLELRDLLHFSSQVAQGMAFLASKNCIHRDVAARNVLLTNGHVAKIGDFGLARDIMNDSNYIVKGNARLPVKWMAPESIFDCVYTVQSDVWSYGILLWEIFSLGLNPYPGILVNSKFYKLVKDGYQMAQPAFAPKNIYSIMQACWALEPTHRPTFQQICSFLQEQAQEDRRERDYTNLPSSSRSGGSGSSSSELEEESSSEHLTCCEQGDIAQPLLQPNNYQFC
Chain of Kdr (P35968 20-1356): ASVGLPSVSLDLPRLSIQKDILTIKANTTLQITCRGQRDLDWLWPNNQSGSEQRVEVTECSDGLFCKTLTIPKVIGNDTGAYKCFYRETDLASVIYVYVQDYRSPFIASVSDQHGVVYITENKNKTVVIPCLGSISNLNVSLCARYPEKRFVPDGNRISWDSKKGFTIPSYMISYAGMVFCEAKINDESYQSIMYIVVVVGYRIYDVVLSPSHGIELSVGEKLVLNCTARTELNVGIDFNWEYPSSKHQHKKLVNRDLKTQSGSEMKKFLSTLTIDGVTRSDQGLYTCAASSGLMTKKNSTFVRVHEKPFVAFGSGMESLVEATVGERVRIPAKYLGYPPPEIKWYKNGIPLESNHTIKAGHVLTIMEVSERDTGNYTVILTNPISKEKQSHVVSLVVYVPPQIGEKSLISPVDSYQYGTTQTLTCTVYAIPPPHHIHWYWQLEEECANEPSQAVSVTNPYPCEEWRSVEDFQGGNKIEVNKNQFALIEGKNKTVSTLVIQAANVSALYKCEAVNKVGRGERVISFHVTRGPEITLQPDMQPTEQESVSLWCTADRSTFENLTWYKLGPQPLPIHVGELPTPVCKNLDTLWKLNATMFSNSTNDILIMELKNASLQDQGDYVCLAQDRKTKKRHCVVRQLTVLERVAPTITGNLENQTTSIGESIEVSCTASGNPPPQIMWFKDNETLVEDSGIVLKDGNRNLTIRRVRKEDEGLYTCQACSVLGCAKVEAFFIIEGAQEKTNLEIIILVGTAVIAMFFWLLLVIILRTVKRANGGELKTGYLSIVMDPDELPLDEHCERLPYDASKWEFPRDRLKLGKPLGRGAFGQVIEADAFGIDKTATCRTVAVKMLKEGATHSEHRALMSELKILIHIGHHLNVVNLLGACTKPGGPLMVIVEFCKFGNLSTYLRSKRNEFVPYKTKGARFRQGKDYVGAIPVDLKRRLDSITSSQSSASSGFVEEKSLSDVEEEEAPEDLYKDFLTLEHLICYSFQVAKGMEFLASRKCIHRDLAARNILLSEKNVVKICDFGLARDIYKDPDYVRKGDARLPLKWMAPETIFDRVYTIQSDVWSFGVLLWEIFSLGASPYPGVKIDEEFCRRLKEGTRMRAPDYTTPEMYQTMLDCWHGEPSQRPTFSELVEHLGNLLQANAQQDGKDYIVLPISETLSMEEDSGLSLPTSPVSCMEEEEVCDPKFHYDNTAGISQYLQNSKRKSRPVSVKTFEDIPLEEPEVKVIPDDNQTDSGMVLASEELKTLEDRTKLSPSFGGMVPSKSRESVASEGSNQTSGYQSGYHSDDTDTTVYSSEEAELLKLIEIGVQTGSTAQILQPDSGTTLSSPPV
Chain of Kit (P10721 26-976): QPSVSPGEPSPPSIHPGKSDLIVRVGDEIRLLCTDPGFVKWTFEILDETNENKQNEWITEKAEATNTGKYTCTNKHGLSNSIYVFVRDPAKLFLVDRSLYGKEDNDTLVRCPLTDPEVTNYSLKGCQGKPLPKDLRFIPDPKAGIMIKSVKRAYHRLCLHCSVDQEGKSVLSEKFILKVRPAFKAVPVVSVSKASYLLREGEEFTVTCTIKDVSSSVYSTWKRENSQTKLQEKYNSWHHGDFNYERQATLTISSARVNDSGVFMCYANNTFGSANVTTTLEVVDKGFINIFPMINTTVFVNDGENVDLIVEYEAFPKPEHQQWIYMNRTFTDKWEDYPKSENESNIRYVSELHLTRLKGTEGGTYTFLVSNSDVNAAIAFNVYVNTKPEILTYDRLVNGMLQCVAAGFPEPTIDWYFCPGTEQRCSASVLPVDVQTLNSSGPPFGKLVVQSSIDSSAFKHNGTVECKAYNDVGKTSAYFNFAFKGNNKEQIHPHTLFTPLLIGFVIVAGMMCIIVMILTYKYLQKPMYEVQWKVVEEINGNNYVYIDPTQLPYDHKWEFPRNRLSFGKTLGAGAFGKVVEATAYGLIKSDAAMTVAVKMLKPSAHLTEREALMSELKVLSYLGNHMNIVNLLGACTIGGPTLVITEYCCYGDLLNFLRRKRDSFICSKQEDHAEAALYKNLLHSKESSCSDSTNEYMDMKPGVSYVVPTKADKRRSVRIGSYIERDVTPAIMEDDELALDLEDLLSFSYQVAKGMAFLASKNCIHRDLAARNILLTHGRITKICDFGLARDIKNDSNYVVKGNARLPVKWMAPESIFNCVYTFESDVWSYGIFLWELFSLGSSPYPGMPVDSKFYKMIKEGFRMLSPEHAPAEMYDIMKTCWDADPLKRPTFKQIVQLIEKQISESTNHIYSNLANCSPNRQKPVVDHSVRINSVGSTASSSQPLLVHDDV
Chain of B-Raf V600E/T529I (P15056 whole entry T529I/V600E): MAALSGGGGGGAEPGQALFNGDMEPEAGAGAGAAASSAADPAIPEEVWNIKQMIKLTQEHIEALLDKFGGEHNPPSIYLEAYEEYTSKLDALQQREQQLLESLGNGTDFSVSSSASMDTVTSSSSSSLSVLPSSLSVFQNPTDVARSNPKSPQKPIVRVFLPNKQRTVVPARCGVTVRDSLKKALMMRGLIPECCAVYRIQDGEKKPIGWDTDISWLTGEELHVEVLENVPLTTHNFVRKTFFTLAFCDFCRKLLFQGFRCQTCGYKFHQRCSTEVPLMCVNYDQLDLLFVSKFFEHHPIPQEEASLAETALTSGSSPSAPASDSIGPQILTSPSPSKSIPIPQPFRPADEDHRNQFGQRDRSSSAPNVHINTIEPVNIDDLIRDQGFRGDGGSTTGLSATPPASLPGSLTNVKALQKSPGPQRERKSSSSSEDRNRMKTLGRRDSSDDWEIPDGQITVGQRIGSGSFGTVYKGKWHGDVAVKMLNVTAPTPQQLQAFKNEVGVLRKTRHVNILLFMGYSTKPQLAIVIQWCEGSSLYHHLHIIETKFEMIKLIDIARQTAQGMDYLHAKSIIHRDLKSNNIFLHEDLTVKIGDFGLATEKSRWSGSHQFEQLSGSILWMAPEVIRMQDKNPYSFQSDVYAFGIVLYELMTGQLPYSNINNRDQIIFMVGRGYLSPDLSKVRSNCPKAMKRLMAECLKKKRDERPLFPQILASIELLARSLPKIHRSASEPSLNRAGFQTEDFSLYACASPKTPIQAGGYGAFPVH
Chain of B-Raf (P15056 whole entry): as the sequence (P15056 whole entry T529I/V600E) above, with I529T, E600V counted along it
Chain of Jnk1 (P45983 whole entry): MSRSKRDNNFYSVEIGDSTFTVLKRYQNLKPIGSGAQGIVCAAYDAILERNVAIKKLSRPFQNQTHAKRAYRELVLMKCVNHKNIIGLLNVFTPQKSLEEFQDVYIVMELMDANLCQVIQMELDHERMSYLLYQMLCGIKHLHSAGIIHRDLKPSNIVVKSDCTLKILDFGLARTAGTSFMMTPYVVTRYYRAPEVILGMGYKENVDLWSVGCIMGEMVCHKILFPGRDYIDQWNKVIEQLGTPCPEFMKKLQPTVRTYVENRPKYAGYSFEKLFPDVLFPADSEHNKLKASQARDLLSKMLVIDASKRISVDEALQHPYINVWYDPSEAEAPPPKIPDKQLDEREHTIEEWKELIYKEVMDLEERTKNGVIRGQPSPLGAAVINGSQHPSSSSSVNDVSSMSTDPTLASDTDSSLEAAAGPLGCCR
Chain of B-Raf V600E (P15056 whole entry V600E): as the sequence (P15056 whole entry T529I/V600E) above, with I529T counted along it
Chain of Src (P12931 whole entry): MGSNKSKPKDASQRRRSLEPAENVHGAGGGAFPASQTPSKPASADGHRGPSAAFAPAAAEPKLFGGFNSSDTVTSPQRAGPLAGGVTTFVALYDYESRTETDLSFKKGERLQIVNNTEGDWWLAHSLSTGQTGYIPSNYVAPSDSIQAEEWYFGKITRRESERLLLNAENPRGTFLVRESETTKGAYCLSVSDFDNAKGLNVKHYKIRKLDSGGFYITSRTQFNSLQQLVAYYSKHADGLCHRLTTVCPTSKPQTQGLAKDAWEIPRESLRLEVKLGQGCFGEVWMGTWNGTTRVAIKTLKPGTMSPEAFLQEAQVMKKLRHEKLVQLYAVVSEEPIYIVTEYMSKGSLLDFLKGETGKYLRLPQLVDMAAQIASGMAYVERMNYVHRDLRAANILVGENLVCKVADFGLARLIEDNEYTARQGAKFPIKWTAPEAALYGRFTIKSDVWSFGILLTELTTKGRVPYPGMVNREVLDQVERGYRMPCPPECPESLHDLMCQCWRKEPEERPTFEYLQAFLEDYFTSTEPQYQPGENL

Cn1cc(-c2cnc3[nH]cc(C(=O)c4c(F)ccc(NS(=O)(=O)c5cccc(OC(F)F)c5)c4F)c3c2)cn1 [Compound P-0020]
not listed: [12] | [13]
≤ 10 µM: all other assays above

O=C(c1c(F)ccc(NS(=O)(=O)c2cccc(OC(F)F)c2)c1F)c1c[nH]c2ncc(Cl)cc12 [Compound P-0016, N-[3-(5-Chloro-1H-pyrrolo[2,3-b]pyridine-3-carbonyl)-2,4-difluoro-phenyl]-3-difluoromethoxy-benzenesulfonamide]
not listed: [1] | [6] | [11] | [13]
≤ 10 µM: all other assays above

Cc1cnc(-c2cnc3[nH]cc(C(=O)c4c(F)ccc(NS(=O)(=O)c5ccc(C(F)(F)F)cc5)c4F)c3c2)[nH]1 [Compound P-0025, N-{2,4-Difluoro-3-[5-(5-methyl-1H-imidazol-2-yl)-1H-pyrrolo[2,3-b]pyridine-3-carbonyl]-phenyl}-4-trifluoromethyl-benzenesulfonamide]
not listed: [2] | [6] | [11] | [12] | [13]
≤ 10 µM: all other assays above

O=C(c1c(F)ccc(NS(=O)(=O)c2ccc3nsnc3c2)c1F)c1c[nH]c2ncc(Cl)cc12 [Compound P-0013, Benzo[1,2,5]thiadiazoe-5-sulfonic acid [3-(5-chloro-1H-pyrrolo[2,3-b]pyridine-3-carbonyl)-2,4-difluoro-phenyl]-amide]
not listed: [1] | [3] | [6] | [12] | [13]
≤ 10 µM: all other assays above

CC(C)c1ccc(S(=O)(=O)Nc2ccc(F)c(C(=O)c3c[nH]c4ncc(-c5cnn(C)c5)cc34)c2F)cc1 [Compound P-0022, N-{2,4-Difluoro-3-[5-(1-methyl-1H-pyrazol-4-yl)-1H-pyrrolo[2,3-b]pyridine-3-carbonyl]-phenyl}-4-isopropyl-benzenesulfonamide]
not listed: [1] | [3] | [6] | [12] | [13]
≤ 10 µM: all other assays above

N#Cc1cnc2[nH]cc(C(=O)c3c(F)ccc(NS(=O)(=O)c4ccc(C(F)(F)F)cc4)c3F)c2c1 [Compound P-0031, N-[3-(5-Cyano-1H-pyrrolo[2,3-b]pyridine-3-carbonyl)-2,4-difluoro-phenyl]-4-trifluoromethyl-benzenesulfonamide]
≤ 10 µM: [3] | [5] | [7] | [8] | [9]

CCCc1ccc(S(=O)(=O)Nc2ccc(F)c(C(=O)c3c[nH]c4ncc(-c5cnn(C)c5)cc34)c2F)cc1 [Compound P-0021, N-{2,4-Difluoro-3-[5-(1-methyl-1H-pyrazol-4-yl)-1H-pyrrolo[2,3-b]pyridine-3-carbonyl]-phenyl}-4-propyl-benzenesulfonamide]
not listed: [1] | [3] | [6] | [12] | [13]
≤ 10 µM: all other assays above

CCCc1ccc(S(=O)(=O)Nc2ccc(F)c(C(=O)c3c[nH]c4ncc(-c5ncc(C)[nH]5)cc34)c2F)cc1 [Compound P-0023, N-{2,4-Difluoro-3-[5-(5-methyl-1H-imidazol-2-yl)-1H-pyrrolo[2,3-b]pyridine-3-carbonyl]-phenyl}-4-propyl-benzenesulfonamide]
not listed: [1] | [3] | [6] | [12] | [13]
≤ 10 µM: all other assays above

CCCc1ccc(S(=O)(=O)Nc2ccc(F)c(C(=O)c3c[nH]c4ncc(-c5nccn5C)cc34)c2F)cc1 [Compound P-0026, N-{2,4-Difluoro-3-[5-(1-methyl-1H-imidazol-2-yl)-1H-pyrrolo[2,3-b]pyridine-3-carbonyl]-phenyl}-4-propyl-benzenesulfonamide]
≤ 10 µM: [3] | [4] | [7] | [9] | [10]

O=C(c1c(F)ccc(NS(=O)(=O)c2ccc(-c3ccno3)s2)c1F)c1c[nH]c2ncc(Cl)cc12 [Compound P-0006, 5-Isoxazol-5-yl-thiophene-2-sulfonic acid [3-(5-chloro-1H-pyrrolo[2,3-b]pyridine-3-carbonyl)-2,4-difluoro-phenyl]-amide]
≤ 10 µM: [2] | [5] | [7] | [8] | [9] | [10] | [13]

O=C(c1c(F)ccc(NS(=O)(=O)c2ccc3oc(=O)ccc3c2)c1F)c1c[nH]c2ncc(Cl)cc12 [Compound P-0005, 2-Oxo-2H-chromene-6-sulfonic acid [3-(5-chloro-1H-pyrrolo[2,3-b]pyridine-3-carbonyl)-2,4-difluoro-phenyl]-amide]
not listed: [1] | [3] | [6] | [11] | [12]
≤ 10 µM: all other assays above

O=C(c1c(F)ccc(NS(=O)(=O)c2ccc(-c3cnco3)s2)c1F)c1c[nH]c2ncc(Cl)cc12 [Compound P-0003, 5-Oxazol-5-yl-thiophene-2-sulfonic acid [3-(5-chloro-1H-pyrrolo[2,3-b]pyridine-3-carbonyl)-2,4-difluoro-phenyl]-amide]
not listed: [1] | [3] | [6] | [11] | [12]
≤ 10 µM: all other assays above

Cc1cnc(-c2cnc3[nH]cc(C(=O)c4c(F)ccc(NS(=O)(=O)c5cccc(OC(F)F)c5)c4F)c3c2)[nH]1 [Compound P-0024, 3-Difluoromethoxy-N-{2,4-difluoro-3-[5-(5-methyl-1H-imidazol-2-yl)-1H-pyrrolo[2,3-b]pyridine-3-carbonyl]-phenyl}-benzenesulfonamide]
≤ 10 µM: [2] | [4] | [5] | [7] | [9] | [10] | [11]

Cc1c[nH]c(-c2cnc3[nH]cc(C(=O)c4c(F)ccc(NS(=O)(=O)c5ccc(C(C)C)cc5)c4F)c3c2)n1 [Compound P-0019, N-{2,4-Difluoro-3-[5-(4-methyl-1H-imidazol-2-yl)-1H-pyrrolo[2,3-b]pyridine-3-carbonyl]-phenyl}-4-isopropyl-benzenesulfonamide]
≤ 10 µM: [1] | [4] | [5] | [7] | [8] | [9] | [10]
